Experiments:
[1] = test system: endotoxin induced uveitis (EIU) in mice; test: Endotoxin induced uveitis (EIU) model, CD11b+ cells in retina by flow cytometry; format: in vivo; conditions: pretreated with 0.1, 1.0 and 10.0 mM eyedrops twice daily for 3 days before LPS, eyes harvested 24 hours later (FIG. 2)
Protocol: EIU is a more acute form of anterior uveitis, induced by intraperitoneal immunization with LPS (endotoxin), and clinical signs of uveitis can be observed within 24-48 hours post immunisation. Due to the narrow time frame of disease, in our study mice (n=2 per group) were pretreated with three different concentrations of JNJ777120 compound (0.1, 1.0 and 10.0 mM) given twice daily as eyedrops for 3 days prior to inducing EIU, and eyes harvested 24 hours later. In this study, retinas were dissected from each eye and single cell suspensions prepared for staining with CD11b (to stain for granulocytes), and analysed by flow cytometry, Each eye was kept separate, so results are shown as means of 4 retinae in each group, in comparison with 6 eyes from 3 EIU non-treated control mice.

[2] = test system: experimental autoimmune uveitis (EAU) in C57B1/6 mice; test: Experimental autoimmune uveitis (EAU) model, therapeutic treatment, histological scoring; format: in vivo; conditions: EAU C57B1/6 mice, disease established, 5 doses, eyes harvested day 19 (FIG. 1)
From the text: Whilst CD4+T cells are crucial for disease induction, it is now established in the literature (see Dick et al 2012) that tissue resident cells (microglia, macrophages) and infiltrating inflammatory cells (CD11b+granulocytes) contribute to the perpetuation of the inflammation in the C57BL/6 mouse, where evidence of retinal inflammation can be observed up to day 56 post immunization. In our study EAU was induced in C57B1/6 mice using subcutaneous administration of IRBP peptide emulsified in complete Freund's adjuvant (CFA) supplemented with […] mycobacterium, and intraperitoneal immunisation with Pertussis toxin. Clinical signs of EAU disease were monitored using non-invasive retinal fundus imaging (TEFI) until signs of retinal inflammatory disease were observed (usually by day 14). At this point mice were divided into treatment groups. A total of 45 mice were used, with groups as follows: CFA controls n=4; EAU controls n=6; JNJ 7777120 16 mg/kg n=5; 994 10 mg/kg n=5; 994 30 mg/kg n=5; 994 100 mg/kg n=5; 1006 10 mg/kg n=5; 1006 30 mg/kg n=5; 1006 100 mg/kg n=5. Each treatment group of mice received 5 intraperitoneal doses of compound, once per day, until day 19 when eyes were harvested. At this point eyes were processed and fixed, and histological sections were prepared. Histological scoring by light microscopy was done according to established methods (Gegg et al, 2005) where a score of 1.0 reflects inflammatory cells present in the vitreous cavity but not throughout the retinal layers, and the photoreceptor layer is as normal. A score of 2.0 reflects cells within the outer retinal layers, with some granuloma formation. A score of 3.0 reflects cells within the photoreceptor layer, some retinal folding, a focal loss of photoreceptor cells. […] This is an impressive effect since disease was already established. In most treatment studies mice are pretreated with drug prior to inducing EAU.

**Q.** How did the “levels of infiltrating granulocytes (numbers of CD11b+ cells in retina)” value [1] turn out when `CN1CCN(C(=O)c2cc3cc(Cl)ccc3[nH]2)CC1` [JNJ7777120, 1-[(5-chloro-1H-indol-2-yl)carbonyl]-4-methylpiperazine] was run?
**A.** significantly decreased the levels of infiltrating granulocytes

**Q.** And the “histological scores (retinal inflammation, light microscopy)” value (“histological scores” for short) ([2]; 16 mg/kg i.p. once per day)?
**A.** reduced the histological scores to control levels

**Q.** For `Cc1ccc(CNc2cc(N3CCN(C)CC3)nc(N)n2)cc1.O=C(O)/C=C\C(=O)O` [compound 994], which “histological scores” value ([2]; 100 mg/kg i.p. once per day) is on record?
**A.** reduced the histological scores to control levels

**Q.** How did the “histological scores” value ([2]; 30 mg/kg i.p. once per day) turn out when `CN1CCN(c2cc(NCc3c(Cl)cccc3Cl)nc(N)n2)CC1.O=C(O)/C=C\C(=O)O` [compound 1006] was run?
**A.** reduced the histological scores to control levels
